Source: patent US20110166152A1, “HETEROAROMATIC COMPOUNDS AS INHIBITORS OF STEAROYL-COENZYME A DELTA-9 DESATURASE” (priority 2008, published 2011)

The molecules below were run against T1, human SCD1 (Homo sapiens, UniProt O00767) (assay: SCD enzyme activity assay, reconstituted human SCD1 ([3H]-stearoyl-CoA conversion)). Settings: read-out: IC50 hSCD-1.
T1 construct: made in house; host or cells: baculovirus/Sf9 insect cells
T1 sequence (O00767 1-359): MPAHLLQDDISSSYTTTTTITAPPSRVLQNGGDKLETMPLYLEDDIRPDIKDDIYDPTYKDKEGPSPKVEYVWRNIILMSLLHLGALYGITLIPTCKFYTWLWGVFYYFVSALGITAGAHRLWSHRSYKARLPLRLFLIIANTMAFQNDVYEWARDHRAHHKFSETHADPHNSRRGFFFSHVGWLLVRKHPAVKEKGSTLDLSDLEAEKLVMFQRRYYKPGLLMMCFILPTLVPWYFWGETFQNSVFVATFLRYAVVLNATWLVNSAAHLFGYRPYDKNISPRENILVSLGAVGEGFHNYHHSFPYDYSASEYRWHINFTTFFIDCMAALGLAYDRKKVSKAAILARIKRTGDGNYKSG
Assay type: biochemical
Method: The potency of compounds of formula I against the stearoyl-CoA desaturase was determined by measuring the conversion of radiolabeled stearoyl-CoA to oleoyl-CoA using rat liver microsome or human SCD1 following previously published procedures with some modifications (Joshi, et al., J. Lipid Res., 18: 32-36 (1977); Talamo, et al., Anal. Biochem, 29: 300-304 (1969)). Liver microsome was prepared from male Wistar or Sprague Dawley rats on a high carbohydrate diet for 3 days (LabDiet #5803, Purina). The livers were homogenized (1:10 w/v) in a buffer containing 250 mM sucrose, 1 mM EDTA, 5 mM DTT and 50 mM Tris-HCl (pH 7.5). After a 100,000×g centrifugation for 60 min, the liver microsome pellet was suspended in a buffer containing 100 mM sodium phosphate, 20% glycerol, 2 mM DTT, and stored at −78° C. Human SCD1 desaturase system was reconstituted using human SCD1 from a baculovirus/Sf9 expression system, cytochrome B5 and cytochrome B5 reductase. Typically, test compound in 2 μL DMSO was incubated for 15 min at room temperature with 180 μL of the SCD enzyme in a buffer containing 100 mM Tris-HCl (pH 7.5), ATP (5 mM), Coenzyme-A (0.1 mM), Triton X-100 (0.5 mM) and NADH (2 mM). The reaction was initiated by the addition of 20 μL of [^3H]-stearoyl-CoA (final concentration=2 μM, radioactivity concentration=1 μCi/mL). After 10 min, the reaction mixture (80 μL) was mixed with a calcium chloride/charcoal aqueous suspension (100 μL charcoal (10% w/v) plus 25 μL CaCl2 (2N). After centrifugation to precipitate the radioactive fatty acid species, tritiated water released from 9,10-[^3H]-stearoyl-CoA by the SCD enzyme was quantified on a scintillation counter.

| Structure (SMILES) | IC50 |
| --- | --- |
| OCc1ccn2cc(-c3cn(Cc4cc(Cl)c(Cl)c(Cl)c4)nn3)nc2c1 | 39 nM |
| Oc1cnc2nc(-c3cn(Cc4cc(Cl)c(Cl)c(Cl)c4)nn3)sc2n1 | 48 nM |

Molecules with a lower IC50, results first:

| IC50 | Structure (SMILES) |
| --- | --- |
| 31 nM | O=C(O)CNc1nc2cnc(-c3cn(Cc4cc(Cl)c(Cl)c(Cl)c4)nn3)nc2s1 |
| 16 nM | CCOC(=O)Nc1nc2ncc(-c3cn(Cc4cc(Br)c(Br)c(Br)c4)nn3)nc2s1 |
| 14 nM | O=C(O)c1ccc2nc(-c3cn(Cc4cc(Br)c(Br)c(Br)c4)nn3)sc2c1 |
